# Experimental data as given in ChEMBL document CHEMBL6127061, “Discovery of orally bioavailable ALK PROTACs based ceritinib against ALK positive cancers” (Eur J Med Chem, 2024).
# Legend:
# [1] = human, plasma, 1 h
# Description: Metabolic stability in human plasma measured upto 60 mins in presence of NADPH by LC-MS/MS analysis
# [2] = microsomes, 1 h, 1.5 µM
# Description: Metabolic stability in liver microsomes (unknown origin) at 1.5 uM measured upto 60 mins in presence of NADPH by LC-MS/MS analysis
# [3] = Drug concentration in ICR mouse at 10 mmg/kg, po measured after 0.5 to 24 hrs; format: ADME, organism-based; conditions: in vivo, 10 mg/kg, time 0.5-24 hrs
# [4] = Cmax in ICR mouse at 10 mg/kg, po measured upto 24 hrs by LC-MS/MS analysis; format: ADME, organism-based; conditions: in vivo
# [5] = Tmax in ICR mouse at 1 mg/kg, iv measured upto 24 hrs by LC-MS/MS analysis; format: ADME, organism-based; conditions: in vivo
# [6] = MRTinfinity in ICR mouse at 10 mg/kg, po measured upto 24 hrs by LC-MS/MS analysis; format: ADME, organism-based; conditions: in vivo
# [7] = AUC(0 to 24 hrs) in ICR mouse at 10 mg/kg, po measured upto 24 hrs by LC-MS/MS analysis; format: ADME, organism-based; conditions: in vivo
# [8] = MRT(0 to t) in ICR mouse at 10 mg/kg, po measured upto 24 hrs by LC-MS/MS analysis; format: ADME, organism-based; conditions: in vivo
# [9] = AUCinfinity in ICR mouse at 1 mg/kg, iv measured upto 24 hrs by LC-MS/MS analysis; format: ADME, organism-based; conditions: in vivo
# [10] = AUC(0 to 24 hrs) in ICR mouse at 1 mg/kg, iv measured upto 24 hrs by LC-MS/MS analysis; format: ADME, organism-based; conditions: in vivo
# [11] = MRT(0 to t) in ICR mouse at 1 mg/kg, iv measured upto 24 hrs by LC-MS/MS analysis; format: ADME, organism-based; conditions: in vivo
# [12] = Cmax in ICR mouse at 1 mg/kg, iv measured upto 24 hrs by LC-MS/MS analysis; format: ADME, organism-based; conditions: in vivo
# [13] = AUCinfinity in ICR mouse at 10 mg/kg, po measured upto 24 hrs by LC-MS/MS analysis; format: ADME, organism-based; conditions: in vivo
# [14] = Half life in ICR mouse at 1 mg/kg, iv measured upto 24 hrs by LC-MS/MS analysis; format: ADME, organism-based; conditions: in vivo
# [15] = Tmax in ICR mouse at 10 mg/kg, po measured upto 24 hrs by LC-MS/MS analysis; format: ADME, organism-based; conditions: in vivo
# [16] = MRTinfinity in ICR mouse at 1 mg/kg, iv measured upto 24 hrs by LC-MS/MS analysis; format: ADME, organism-based; conditions: in vivo
# [17] = Half life in ICR mouse at 10 mg/kg, po measured upto 24 hrs by LC-MS/MS analysis; format: ADME, organism-based; conditions: in vivo
# [18] = Oral bioavailability in ICR mouse at 10 mg/kg measured upto 24 hrs by LC-MS/MS analysis; format: ADME, organism-based; conditions: in vivo
Stability [1],Stability [2],Drug uptake [3] [ng/mL],Cmax [4] [ng/mL],Tmax [5] [min],MRT inf [6] [h],AUC(0-t) at 24 h [7] [ng·h/mL],MRT last at 24 h [8] [h],AUC(0-inf) [9] [ng·h/mL],AUC(0-t) at 24 h [10] [ng·h/mL],MRT last at 24 h [11] [h],Cmax [12] [ng/mL],AUC(0-inf) [13] [ng·h/mL],half-life [14] [h],Tmax [15] [h],MRT inf [16] [h],half-life [17] [h],bioavailability [18] [%],SMILES
Stable,Stable,,,,,,,,,,,,,,,,,Cc1cc(Nc2ncc(Cl)c(Nc3ccccc3S(=O)(=O)C(C)C)n2)c(OC(C)C)cc1C1CCN(C2CCN(C3CN(c4ccc5c(c4)C(=O)N(C4CCC(=O)NC4=O)C5=O)C3)CC2)CC1 (stereo not given)
Stable,Stable,400,1710,4.98,15.7,23900,8.61,21700,17600,7.19,3000,30800,10.8,4,13.2,11.2,14.2,Cc1cc(Nc2ncc(Cl)c(Nc3ccccc3S(=O)(=O)C(C)C)n2)c(OC(C)C)cc1C1CCN(C2CN(C3CCN(c4ccc5c(c4)C(=O)N(C4CCC(=O)NC4=O)C5=O)CC3)C2)CC1 (stereo not given)
